Source: patent US6339149B1, “Isolated nucleic acid molecules which encode tumor rejection antigens found in dage” (Ludwig Institute for Cancer Research, priority 1994, dated 2002)

System: C1R-A24 cells
Assay: 51Cr release assay: peptide sensitization of C1R-A24 cells to lysis by anti LB33-E CTLs
Assay type: cell-based, human
Settings: 51Cr labeled C1R-A24 cells incubated 30 minutes with peptide, E/T ratio 10:1, chromium release after 4 hours
Experimental: The lysis assay employed was a chromium release assay following Herin et al., Int. J. Cancer 39:390-396 (1987), the disclosure of which is incorporated by reference. The assay, however, is described herein. The target melanoma cells were grown in vitro. Prior to labelling, these cells were incubated for 48 hours, in the presence of 50 U/ml of IFN-γ to increase the expression of HLA Class I molecules. The cells were then resuspended at 10^7 cells/ml in DMEM, supplemented with 10 mM HEPES and 30% FCS (i.e. fetal calf serum), and incubated for 45 minutes at 37° C. with 200 μCi/ml of Na(^51Cr)O4. Labelled cells were washed three times with DMEM, supplemented with 10 mM Hepes. These were then resuspended in DMEM supplemented with 10 mM Hepes and 10% FCS, after which 100 ul aliquots containing 10^3 cells, were distributed into 96 well microplates. PBL containing samples were added in 100 ul of the same medium, and assays were carried out in duplicate. Plates were centrifuged for 4 minutes at 100 g, and incubated for four hours at 37° C. in a 5.5% CO2 atmosphere.
Plates were centrifuged again, and 100 ul aliquots of supernatant were collected and counted. Percentage of ^51Cr release was calculated as follows: [formula]
where ER is observed, experimental ^51Cr release, SR is spontaneous release measured by incubating 10^3 labeled cells in 200 ul of medium alone, and MR is maximum release, obtained by adding 100 ul 0.3% Triton X-100® to target cells.
Four sequences in this region which (i) were 9 or 10 amino acids long, (ii) had Tyr or Phe at position 2, and (iii) had one of Phe, Leu, Ile, or Trp at C-terminus were possible. This is the motif for HLA-A24 binding described by Kubo, et al, J. Immunol 152:3913 (1994); Meier, et al, Immunogenetics 40:306-308 (1994). These were synthesized, and incubated with cells of MHC class I negative B-cell lympoblastoid line C1R, which had been transfected with the HLA-A24 cDNA clone described supra. One peptide:
Comparative experiments were carried out, wherein peptides containing one additional N- or C-terminal amino acid, and where the C-terminal Leu was deleted, were used. […] Peptides used extended SEQ ID NO:5 at the N-terminues with Ala (SEQ ID NO:6), and by deleting the C-terminal Leu (SEQ ID NO:7). […] In these experiments, ^51Cr labeled C1R-A24 cells were incubated for 30 minutes in the presence of indicated peptide concentrations CTLs were added at E/T ratios of 10:1, and chromium release was measured after 4 hours.

Substance | sensitization of C1R-A24 cells to lysis, compared with SEQ ID NO:5 | EC50 (read-out: half maximal effect in sensitizing transfected C1R-A24 cells to lysis by anti LB33-E CTLs) [nM]
SEQ ID NO:6: Peptide that extends SEQ ID NO:5 at the N-terminus with Ala (ALYVDSLFFL) | sensitized the cells to lysis, although to a lesser degree than SEQ ID NO:5 | –
LYVDSLFFL [SEQ ID NO. 5, Leu Tyr Val Asp Ser Leu Phe Phe Leu] | – | 500
SEQ ID NO:8: Peptide of SEQ ID NO:5 with Arg added to the C terminus (LYVDSLFFLR) | much less sensitive in sensitizing the cells | –
SEQ ID NO:7: Peptide of SEQ ID NO:5 with the C-terminal Leu deleted (LYVDSLFF) | much less sensitive in sensitizing the cells | –
